Test results reported in patent US9513253B2, “Droplet actuators and techniques for droplet-based enzymatic assays” (Advanced Liquid Logic, Inc., priority 2011, dated 2016).

Assay: 4-MU partitioning assay, backward transfer partitioning (backward extraction; BE), effect of aqueous phase surfactants on 4-MU containment
Assay type: physicochemical
Settings: surfactant at 1.5 times its CMC; oil phase 5 cSt silicone oil with 0.1% w/v Triton X-15; lower signal = better 4-MU retention
Excerpt: The efficacy of different surfactants (detergents) in containing 4-MU (or derivatives) within an aqueous phase may, for example, be evaluated using a partitioning assay. Parameters that may be varied in the assay for evaluation of surfactants in aqueous containment of 4-MU (or derivatives) include, but are not limited to, the pH of the aqueous phase solution, and the critical micelle concentration of the surfactant.
The assay format includes forward transfer partitioning (forward extraction; FE) of 4-MU from an aqueous phase to an oil phase and backward transfer partitioning (backward extraction; BE) of 4-MU from an oil phase to an aqueous phase. The assay is performed in 96-well microtiter substrates; clear 96-well substrates (e.g., Costar 3631) for evaluation of forward transfer partitioning with bottom probe fluorescence detection and solid black 96-well substrates (e.g., Costar 3915) for evaluation of backward transfer partitioning with top probe fluorescence detection. A BioTek Synergy HT instrument with 3 mm top probe and 5 mm bottom probe, may, for example, be used for fluorescence measurements. […]

For ANAPOE ®-20 (Tween ® 20) [AS17], the “relative fluorescence reading, backward transfer partitioning (BE) of 4-MU” value was 43,000-44,000 RFU.
